One series concerns the target T1, SARS-CoV-2 PLpro (Severe acute respiratory syndrome coronavirus 2, UniProt P0DTD1).
T1 construct: containing 60 nM papain-like protease
Briefly: biochemical.

The test system of series [1] is human Hep G2 cells (ATCC HB-8065). Nature of the series: Cytotoxicity in Hep G2 cells (CellTiter-Glo). The series is classed as cell-based. For orientation: ATP-based viability assays read luminescence as a measure of living cells.
Setting [2] is: 60 nM papain-like protease, 50 μM Z-RLRGG-AMC, pH 7.5, 37° C., read-out: SARS-CoV-2 PLpro IC50.
The mark [3] stands for this setting: Hep G2 cells, 100 μM test article, 24-hour exposure.

The record followed here is patent US20240383852A1, “ANTI-VIRAL COMPOUNDS” (INFEX Therapeutics Limited, priority 2021, published 2024).

The term IC50 denotes the midpoint of a concentration-inhibition curve.

Counter-ions that a name gives are not always drawn. Like-named read-outs stand apart in the source and are kept apart here. Some results are limits rather than exact numbers.

For `Cc1ccc(N2CCN(C)CC2)cc1C(=O)N[C@H](C)c1cc(F)cc(Br)c1` [Example 197, N-[(1R)-1-(3-Bromo-5-fluoro-phenyl)ethyl]-2-methyl-5-(4-methylpiperazin-1-yl)benzamide], at SARS-CoV-2 PLpro (setting [2]), the IC50 is under 2000 nM. In addition, the “% Cell Viability” value in series [1] (setting [3]) was determined as 44.7%.

As to `COc1ccc([C@@H](C)NC(=O)c2cc(N3CC4(CCNCC4)C3)ccc2C)cc1-c1cnn(C)c1` [Example 258, 5-(2,7-Diazaspiro[3.5]nonan-2-yl)-N-[(1R)-1-[4-methoxy-3-(1-methylpyrazol-4-yl)phenyl]ethyl]-2-methyl-benzamide], at SARS-CoV-2 PLpro (setting [2]), the IC50 was under 2000 nM. Besides, in series [1] (setting [3]), the “% Cell Viability” value was determined as 81.8%.

On to `COc1cc(-c2cnn(C)c2)cc([C@@H](C)NC(=O)c2cc(N3CC4CNCC4C3)ccc2C)c1` (stereo partly drawn) [Example 262, 5-(2,3,3a,4,6,6a-Hexahydro-1H-pyrrolo[3,4-c]pyrrol-5-yl)-N-[(1R)-1-[3-methoxy-5-(1-methylpyrazol-4-yl)phenyl]ethyl]-2-methyl-benzamide], for which the IC50 at SARS-CoV-2 PLpro (setting [2]) is under 2000 nM. Moreover, in series [1] (setting [3]), the “% Cell Viability” value was determined as 42.4%.

In turn, `Cc1ccc(C2=CCNCC2)c(C)c1C(=O)N[C@H](C)c1cccc2ccccc12` [Example 155, 2,6-Dimethyl-N-[(1R)-1-(1-naphthyl)ethyl]-3-(1,2,3,6-tetrahydropyridin-4-yl)benzamide] gave an IC50 on SARS-CoV-2 PLpro of under 2000 nM. Also, in series [1] (human, 24 h, 100 μM), the “% Cell Viability” value turned out to be 0.6%.

In the case of `Cc1ccc(N2CCN(C)CC2)cc1C(=O)N[C@H](C)c1cccc(C(=O)NC[C@H](O)CO)c1` [Example 309, N-[(1R)-1-[3-[[(2S)-2,3-Dihydroxypropyl]carbamoyl]phenyl]ethyl]-2-methyl-5-(4-methylpiperazin-1-yl)benzamide], the IC50 on SARS-CoV-2 PLpro (setting [2]) was under 5000 nM. Further, in series [1] (setting [3]), the “% Cell Viability” value is 118.2%.

Turning to `Cc1ccc(N2CCN(C)CC2)cc1C(=O)N[C@H](C)c1cccc(-c2cccc(C(=O)NCCCN(C)C)c2)c1` [Example 93, N-[(1R)-1-[3-[3-[3-(Dimethylamino)propylcarbamoyl]phenyl]phenyl]ethyl]-2-methyl-5-(4-methylpiperazin-1-yl)benzamide], on SARS-CoV-2 PLpro (setting [2]), the IC50 is under 2000 nM. In addition, the “% Cell Viability” value in series [1] (setting [3]) turned out to be 41.9%.

Turning to `COc1cc(Br)cc([C@@H](C)NC(=O)c2cc(N3CCN4CCCC4C3)ccc2C)c1` (stereo partly drawn) [Example 200, 5-(3,4,6,7,8,8a-Hexahydro-1H-pyrrolo[1,2a]pyrazin-2-yl)-N-[(1R)-1-(3-bromo-5-methoxy-phenyl)ethyl]-2-methyl-benzamide], the half-maximal inhibitory concentration (IC50) on SARS-CoV-2 PLpro (setting [2]) was under 2000 nM. Also, in series [1] (setting [3]), the “% Cell Viability” value was determined as 24.3%.

Regarding `COc1cc(-c2ccccc2)cc([C@@H](C)NC(=O)c2cc(N3CCN(C)CC3)ccc2C)c1` [Example 234, N-[(1R)-1-(3-Methoxy-5-phenyl-phenyl)ethyl]-2-methyl-5-(4-methylpiperazin-1-yl)benzamide], the IC50 on SARS-CoV-2 PLpro (setting [2]) was under 2000 nM. In series [1] (setting [3]), the “% Cell Viability” value is listed as 0.9%.

Consider `Cc1ccc(N2C[C@H]3C[C@@H]2CN3C)cc1C(=O)N[C@H](C)c1cccc2ccccc12` [Example 121, 2-Methyl-5-[(1R,4R)-5-methyl-2,5-diazabicyclo[2.2.1]heptan-2-yl]-N-[(1R)-1-(naphthalen-1-yl)ethyl]benzamide], for which the IC50 at SARS-CoV-2 PLpro (setting [2]) was under 2000 nM. Besides, in series [1] (setting [3]), the “% Cell Viability” value worked out at 75.1%.

For the compound `COc1ccc([C@@H](C)NC(=O)c2cc(N3CCN(C)CC3)ccc2C)cc1-c1cnn(CCO)c1` [Example 284, N-[(1R)-1-[3-[1-(2-Hydroxyethyl)pyrazol-4-yl]-4-methoxy-phenyl]ethyl]-2-methyl-5-(4-methylpiperazin-1-yl)benzamide], on SARS-CoV-2 PLpro (setting [2]), the half-inhibitory concentration (IC50) is under 2000 nM. For the same compound, the “% Cell Viability” value in series [1] (setting [3]) came to 101.3%.

For `CNC(=O)c1cc(-c2cc([C@@H](C)NC(=O)c3cc(N4CCN(C)CC4)ccc3C)ccc2OC)cs1` [Example 288, 4-[2-Methoxy-5-[(1R)-1-[[2-methyl-5-(4-methylpiperazin-1-yl)benzoyl]amino]ethyl]phenyl]-N-methyl-thiophene-2-carboxamide], the IC50 on SARS-CoV-2 PLpro (setting [2]) was under 2000 nM. Also, the “% Cell Viability” value in series [1] (setting [3]) is given as 47.2%.

For the compound `Cc1ccc(N2CCN(C)CC2)cc1C(=O)N[C@H](C)c1cccc2ccccc12` [Example 21, 2-Methyl-5-(4-methylpiperazin-1-yl)-N-[(1R)-1-(1-naphthyl)ethyl]benzamide], the IC50 at SARS-CoV-2 PLpro (setting [2]) is under 2000 nM. For the same compound, in series [1] (setting [3]), the “% Cell Viability” value is given as 56.9%.

With `COc1ccc([C@@H](C)NC(=O)c2cc(N3C[C@@H]4C[C@H]3CN4C)ccc2C)cc1OC` [Example 12, N-[(1R)-1-(3,4-Dimethoxyphenyl)ethyl]-2-methyl-5-[(1S,4S)-5-methyl-2,5-diazabicyclo[2.2.1]heptan-2-yl]benzamide], at SARS-CoV-2 PLpro (setting [2]), the IC50 is under 5000 nM. For the same compound, the “% Cell Viability” value in series [1] (setting [3]) turned out to be 91.1%.

Regarding `COc1cc(OC)cc([C@@H](C)NC(=O)c2cc(N3CCN(C)CC3)ccc2C)c1` [Example 31, N-[(1R)-1-(3,5-Dimethoxyphenyl)ethyl]-2-methyl-5-(4-methylpiperazin-1-yl)benzamide], at SARS-CoV-2 PLpro (setting [2]), the IC50 was under 5000 nM. The “% Cell Viability” value in series [1] (setting [3]) is reported as 90.6%.

Turning to `Cc1ccc(N2CCN(C)CC2)cc1C(=O)N[C@H](C)c1cccc(-c2ccc(CNC3CCCC3)s2)c1` [Example 78, N-[(1R)-1-[3-[5-[(Cyclopentylamino)methyl]-2-thienyl]phenyl]ethyl]-2-methyl-5-(4-methylpiperazin-1-yl)benzamide Dihydrochloride Salt], the half-maximal inhibitory concentration (IC50) on SARS-CoV-2 PLpro (setting [2]) is under 2000 nM. Further, the “% Cell Viability” value in series [1] (setting [3]) was found to be 1.3%.

For `Cc1ccc(N2CCN(C3CC3)CC2)cc1C(=O)N[C@H](C)c1cccc2ccccc12` [Example 115, 5-(4-Cyclopropylpiperazin-1-yl)-2-methyl-N-[(1R)-1-(1-naphthyl)ethyl]benzamide], the IC50 at SARS-CoV-2 PLpro (setting [2]) was under 2000 nM. For the same compound, the “% Cell Viability” value in series [1] (setting [3]) amounted to 26.7%.

As for `COc1cc(-c2cn(C)nc2C)cc([C@@H](C)NC(=O)c2cc(C3CCN(C)CC3)ccc2C)c1` [Example 301, N-[(1R)-1-[3-(1,3-Dimethylpyrazol-4-yl)-5-methoxy-phenyl]ethyl]-2-methyl-5-(1-methyl-4-piperidyl)benzamide], the concentration for half-maximal inhibition (IC50) on SARS-CoV-2 PLpro (setting [2]) was under 2000 nM. Further, the “% Cell Viability” value in series [1] (setting [3]) stood at 77.5%.

For `COc1cc(OC)c([C@@H](C)NC(=O)c2cc(N3CCN(C)CC3)ccc2C)cc1-c1ccccc1` [Example 216, N-[(1R)-1-(2,4-Dimethoxy-5-phenyl-phenyl)ethyl]-2-methyl-5-(4-methylpiperazin-1-yl)benzamide], the IC50 at SARS-CoV-2 PLpro (setting [2]) was under 2000 nM. Besides, in series [1] (setting [3]), the “% Cell Viability” value was 0.6%.

As to `Cc1ccc(N2CCN(C)CC2)cc1C(=O)N[C@H](C)c1cccc(-c2cccc(CCO)c2)c1` [Example 44, N-[(1R)-1-[3-[3-(2-Hydroxyethyl)phenyl]phenyl]ethyl]-2-methyl-5-(4-methylpiperazin-1-yl)benzamide], the IC50 on SARS-CoV-2 PLpro (setting [2]) was under 2000 nM. Moreover, the “% Cell Viability” value in series [1] (setting [3]) worked out at 61.0%.

`Cc1ccc(N2CC[C@@H](N3CCCCC3)C2)cc1C(=O)N[C@H](C)c1cccc2ccccc12` [Example 129, 2-Methyl-N-[(1R)-1-(1-naphthyl)ethyl]-5-[(3R)-3-(1-piperidyl)pyrrolidin-1-yl]benzamide]: the IC50 on SARS-CoV-2 PLpro (setting [2]) is under 5000 nM. Moreover, the “% Cell Viability” value in series [1] (setting [3]) turned out to be 95.5%.

On to `Cc1ccc(N2CCN(C)CC2)cc1C(=O)N[C@H](C)c1cccc(-c2ccc(C3CCNCC3)cc2)c1` [Example 77, 2-Methyl-5-(4-methylpiperazin-1-yl)-N-[(1R)-1-[3-[4-(4-piperidyl)phenyl]phenyl]ethyl]benzamide], for which the IC50 on SARS-CoV-2 PLpro (setting [2]) is under 2000 nM. In series [1] (setting [3]), the “% Cell Viability” value came to 1.0%.

`Cc1ccc(N2CCN(C)CC2)cc1C(=O)N[C@H](C)c1cccc(C(=O)N(C)C)c1` [Example 311, N-[(1R)-1-[3-(Dimethylcarbamoyl)phenyl]ethyl]-2-methyl-5-(4-methylpiperazin-1-yl)benzamide]: the IC50 at SARS-CoV-2 PLpro (setting [2]) is under 20000 nM. Further, the “% Cell Viability” value in series [1] (setting [3]) was determined as 130.7%.

As to `Cc1ccc(N2CCN(C)CC2)cc1C(=O)N[C@H](C)c1cc(F)cc(-c2cnn(C)c2)c1` [Example 229, N-[(1R)-1-[3-Fluoro-5-(1-methylpyrazol-4-yl)phenyl]ethyl]-2-methyl-5-(4-methylpiperazin-1-yl)benzamide], the IC50 at SARS-CoV-2 PLpro (setting [2]) is under 2000 nM. The “% Cell Viability” value in series [1] (setting [3]) came out at 66.7%.

Turning to `COc1ccc([C@@H](C)NC(=O)c2cc(N3C[C@H]4C[C@@H]3CN4C)ccc2C)cc1-c1csc(C(=O)N(C)C)c1` [Example 286, 4-[2-Methoxy-5-[(1R)-1-[[2-methyl-5-[(1R,4R)-5-methyl-2,5-diazabicyclo[2.2.1]heptan-2-yl]benzoyl]amino]ethyl]phenyl]-N,N-dimethyl-thiophene-2-carboxamide], at SARS-CoV-2 PLpro (setting [2]), the IC50 was under 2000 nM. Besides, the “% Cell Viability” value in series [1] (setting [3]) was found to be 50.3%.

Consider `COc1ccc([C@@H](C)NC(=O)c2cc(N3CCN(C)CC3)ccc2C)cc1Br` [Example 180, N-[(1R)-1-(3-Bromo-4-methoxy-phenyl)ethyl]-2-methyl-5-(4-methylpiperazin-1-yl)benzamide], for which the 50% inhibitory concentration (IC50) on SARS-CoV-2 PLpro (setting [2]) was under 2000 nM. Also, in series [1] (setting [3]), the “% Cell Viability” value was found to be 93.4%.

On to `Cc1ccc(N2CCN(C)CC2)cc1C(=O)N[C@H](C)c1ccc2c(c1)OCCO2` [Example 182, N-[(1R)-1-(2,3-Dihydro-1,4-benzodioxin-6-yl)ethyl]-2-methyl-5-(4-methylpiperazin-1-yl)benzamide], for which, at SARS-CoV-2 PLpro (setting [2]), the IC50 is under 5000 nM. For the same compound, the “% Cell Viability” value in series [1] (setting [3]) is listed as 104.8%.

In the case of `Cc1nnc(-c2cccc([C@@H](C)NC(=O)c3cc(N4CCN(C)CC4)ccc3C)c2)s1` [Example 39, 2-Methyl-5-(4-methylpiperazin-1-yl)-N-[(1R)-1-[3-(5-methyl-1,3,4-thiadiazol-2-yl)phenyl]ethyl]benzamide], the IC50 at SARS-CoV-2 PLpro (setting [2]) is under 2000 nM. Moreover, in series [1] (setting [3]), the “% Cell Viability” value was 90.5%.

For the compound `Cc1ccc(N2CCN(C3COC3)CC2)cc1C(=O)N[C@H](C)c1cccc2ccccc12` [Example 117, 2-Methyl-N-[(1R)-1-(1-naphthyl)ethyl]-5-[4-(oxetan-3-yl)piperazin-1-yl]benzamide], the IC50 on SARS-CoV-2 PLpro (setting [2]) is under 5000 nM. For the same compound, in series [1] (setting [3]), the “% Cell Viability” value came out at 61.1%.
